Values after ≈ are worked out from the molar mass of the structure shown. Read-outs that look alike come from different tables or passages of the source.
Assays:
[1] = pH-dependent stability and compatibility with preservatives; type: physicochemical
[2] = solubility of branaplam in selected excipients; type: physicochemical; conditions: pH 4, aqueous with cosolvent or surfactant or cyclodextrin, thermodynamic from solid
Protocol: (§1) Solubility of branaplam was evaluated in excipients, other than cyclodextrin, such as Cremophor RH40, Tween 80, PG, PEG300, and glycerol. These excipients and concentrations were selected as they are suitable for paediatric formulations. None of the tested excipients was able to support development of a formulation comprising branaplam at a concentration high enough (i.e. about 2 mg/ml or higher) to keep the dose volume in a suitable range (Table 6).
as §1, with “5a).” for “6).”
Solubility of branaplam was measured as follows: stock solutions for the excipients at target concentrations were prepared using milli-Q water and adjusted using pH 4.0 buffer. […] Suspensions were stirred for 24 hours (using a magnetic stirrer) ensuring sufficient swirling and monitoring the temperature. The suspensions were filtered through 0.45 μm nominal pore size filter (e.g. using a PES syringe), and the concentration of branaplam in the filtrate was measured using HPLC (high performance liquid chromatography). The measurements were performed in duplicate and average of the values are reported.

For `CC1(C)CC(Oc2ccc(-c3ccc(-c4cn[nH]c4)cc3O)nn2)CC(C)(C)N1` [branaplam, 5-(1H-pyrazol-4-yl)-2-(6-((2,2,6,6-tetramethylpiperidin-4-yl)oxy)pyridazin-3-yl)phenol], the pH-dependent stability [1] was “poor stability under pH 4”, the “compatibility with potassium sorbate” value ([1]; preservative potassium sorbate) was “incompatibility with potassium sorbate” and the solubility at 24 h ([2]; 2 °C, in Cremophor RH 40 15.0% (w/v), pH 4.0 buffer, 2-8° C., read-out: Solubility (mg/mL) 2-8° C.) was 1.19 mg/mL (≈ 3020 µM). For the same compound, the solubility at 24 h ([2]; 25 °C, in Cremophor RH 40 15.0% (w/v), pH 4.0 buffer, RT, read-out: Solubility (mg/mL) RT) was 1.32 mg/mL (≈ 3350 µM), the solubility at 24 h ([2]; Cremophor RH 40 1.0% (w/v) aqueous solution in pH 4.0 buffer, 2 °C, in Cremophor RH 40 1.0% (w/v), pH 4.0 buffer, 2-8° C., read-out: Solubility (mg/mL) 2-8° C.) was 0.17 mg/mL (≈ 432 µM) and the solubility at 24 h ([2]; Cremophor RH 40 1.0% (w/v) aqueous solution in pH 4.0 buffer, 25 °C, in Cremophor RH 40 1.0% (w/v), pH 4.0 buffer, RT, read-out: Solubility (mg/mL) RT) was 0.28 mg/mL (≈ 712 µM). It also gave a solubility at 24 h ([2]; Cremophor RH 40 3.5% (w/v) aqueous solution in pH 4.0 buffer, 2 °C, in Cremophor RH 40 3.5% (w/v), pH 4.0 buffer, 2-8° C., read-out: Solubility (mg/mL) 2-8° C.) of 0.44 mg/mL (≈ 1120 µM), a solubility at 24 h ([2]; Cremophor RH 40 3.5% (w/v) aqueous solution in pH 4.0 buffer, 25 °C, in Cremophor RH 40 3.5% (w/v), pH 4.0 buffer, RT, read-out: Solubility (mg/mL) RT) of 0.53 mg/mL (≈ 1350 µM) and a solubility at 24 h ([2]; Cremophor RH 40 7.0% (w/v) aqueous solution in pH 4.0 buffer, 2 °C, in Cremophor RH 40 7.0% (w/v), pH 4.0 buffer, 2-8° C., read-out: Solubility (mg/mL) 2-8° C.) of 0.71 mg/mL (≈ 1800 µM). It also gave a solubility at 24 h ([2]; Cremophor RH 40 7.0% (w/v) aqueous solution in pH 4.0 buffer, 25 °C, in Cremophor RH 40 7.0% (w/v), pH 4.0 buffer, RT, read-out: Solubility (mg/mL) RT) of 0.84 mg/mL (≈ 2130 µM), a solubility at 24 h ([2]; aqueous excipient solution, 2 °C, in Glycerol 5.0% (w/w), 2-8° C., read-out: Solubility (mg/mL) 2-8° C.) of 0.2 mg/mL (≈ 508 µM) and a solubility at 24 h ([2]; aqueous excipient solution, 2 °C, in Glycerol 10.0% (w/w), 2-8° C., read-out: Solubility (mg/mL) 2-8° C.) of 0.19 mg/mL (≈ 483 µM). The solubility at 24 h ([2]; aqueous excipient solution, 2 °C, in PEG 300 5.0% (w/w), 2-8° C., read-out: Solubility (mg/mL) 2-8° C.) was 0.27 mg/mL (≈ 686 µM), the solubility at 24 h ([2]; aqueous excipient solution, 2 °C, in PEG 300 10.0% (w/w), 2-8° C., read-out: Solubility (mg/mL) 2-8° C.) was 0.34 mg/mL (≈ 864 µM) and the solubility at 24 h ([2]; aqueous excipient solution, 2 °C, in PEG 300 25.0% (w/w), 2-8° C., read-out: Solubility (mg/mL) 2-8° C.) was 0.87 mg/mL (≈ 2210 µM). For the same compound, the solubility at 24 h ([2]; aqueous excipient solution, 2 °C, in PEG 400 5.0% (w/w), 2-8° C., read-out: Solubility (mg/mL) 2-8° C.) was 0.21 mg/mL (≈ 534 µM), the solubility at 24 h ([2]; aqueous excipient solution, 2 °C, in PEG 400 10.0% (w/w), 2-8° C., read-out: Solubility (mg/mL) 2-8° C.) was 0.45 mg/mL (≈ 1140 µM) and the solubility at 24 h ([2]; aqueous excipient solution, 2 °C, in PEG 400 25.0% (w/w), 2-8° C., read-out: Solubility (mg/mL) 2-8° C.) was 0.93 mg/mL (≈ 2360 µM). For the same compound, the solubility at 24 h ([2]; aqueous excipient solution, 2 °C, in Propylene glycol 5.0% (w/w), 2-8° C., read-out: Solubility (mg/mL) 2-8° C.) was 0.16 mg/mL (≈ 407 µM), the solubility at 24 h ([2]; aqueous excipient solution, 2 °C, in Propylene glycol 10.0% (w/w), 2-8° C., read-out: Solubility (mg/mL) 2-8° C.) was 0.18 mg/mL (≈ 457 µM) and the solubility at 24 h ([2]; aqueous excipient solution, 2 °C, in Propylene glycol 25.0% (w/w), 2-8° C., read-out: Solubility (mg/mL) 2-8° C.) was 0.42 mg/mL (≈ 1070 µM). The solubility at 24 h ([2]; aqueous excipient solution, 2 °C, in Tween 80 0.5% (w/w), 2-8° C., read-out: Solubility (mg/mL) 2-8° C.) was 0.16 mg/mL (≈ 407 µM), the solubility at 24 h ([2]; aqueous excipient solution, 2 °C, in Tween 80 0.8% (w/w), 2-8° C., read-out: Solubility (mg/mL) 2-8° C.) was 0.22 mg/mL (≈ 559 µM) and the solubility at 24 h ([2]; aqueous excipient solution, 2 °C, in Tween 80 1.5% (w/w), 2-8° C., read-out: Solubility (mg/mL) 2-8° C.) was 0.29 mg/mL (≈ 737 µM). For the same compound, the solubility at 24 h ([2]; aqueous excipient solution, 2 °C, in Tween 80 5.0% (w/w), 2-8° C., read-out: Solubility (mg/mL) 2-8° C.) was 0.73 mg/mL (≈ 1860 µM), the solubility at 24 h ([2]; aqueous excipient solution, 25 °C, in Glycerol 5.0% (w/w), RT, read-out: Solubility (mg/mL) RT) was 0.18 mg/mL (≈ 457 µM) and the solubility at 24 h ([2]; aqueous excipient solution, 25 °C, in Glycerol 10.0% (w/w), RT, read-out: Solubility (mg/mL) RT) was 0.22 mg/mL (≈ 559 µM). It also gave a solubility at 24 h ([2]; aqueous excipient solution, 25 °C, in PEG 300 5.0% (w/w), RT, read-out: Solubility (mg/mL) RT) of 0.39 mg/mL (≈ 991 µM), a solubility at 24 h ([2]; aqueous excipient solution, 25 °C, in PEG 300 10.0% (w/w), RT, read-out: Solubility (mg/mL) RT) of 0.64 mg/mL (≈ 1630 µM) and a solubility at 24 h ([2]; aqueous excipient solution, 25 °C, in PEG 300 25.0% (w/w), RT, read-out: Solubility (mg/mL) RT) of 1.61 mg/mL (≈ 4090 µM). The solubility at 24 h ([2]; aqueous excipient solution, 25 °C, in PEG 400 5.0% (w/w), RT, read-out: Solubility (mg/mL) RT) was 0.39 mg/mL (≈ 991 µM), the solubility at 24 h ([2]; aqueous excipient solution, 25 °C, in PEG 400 10.0% (w/w), RT, read-out: Solubility (mg/mL) RT) was 0.63 mg/mL (≈ 1600 µM) and the solubility at 24 h ([2]; aqueous excipient solution, 25 °C, in PEG 400 25.0% (w/w), RT, read-out: Solubility (mg/mL) RT) was 1.47 mg/mL (≈ 3740 µM). It also gave a solubility at 24 h ([2]; aqueous excipient solution, 25 °C, in Propylene glycol 5.0% (w/w), RT, read-out: Solubility (mg/mL) RT) of 0.27 mg/mL (≈ 686 µM), a solubility at 24 h ([2]; aqueous excipient solution, 25 °C, in Propylene glycol 10.0% (w/w), RT, read-out: Solubility (mg/mL) RT) of 0.37 mg/mL (≈ 940 µM) and a solubility at 24 h ([2]; aqueous excipient solution, 25 °C, in Propylene glycol 25.0% (w/w), RT, read-out: Solubility (mg/mL) RT) of 0.94 mg/mL (≈ 2390 µM). For the same compound, the solubility at 24 h ([2]; aqueous excipient solution, 25 °C, in Tween 80 0.5% (w/w), RT, read-out: Solubility (mg/mL) RT) was 0.25 mg/mL (≈ 635 µM), the solubility at 24 h ([2]; aqueous excipient solution, 25 °C, in Tween 80 0.8% (w/w), RT, read-out: Solubility (mg/mL) RT) was 0.28 mg/mL (≈ 712 µM) and the solubility at 24 h ([2]; aqueous excipient solution, 25 °C, in Tween 80 1.5% (w/w), RT, read-out: Solubility (mg/mL) RT) was 0.41 mg/mL (≈ 1040 µM). It also gave a solubility at 24 h ([2]; aqueous excipient solution, 25 °C, in Tween 80 5.0% (w/w), RT, read-out: Solubility (mg/mL) RT) of 0.89 mg/mL (≈ 2260 µM) and a solubility at 24 h ([2]; aqueous excipient stock solution, 2 °C, in Cremophor RH 40 1.0% (w/w), 2-8° C., read-out: Solubility (mg/mL) 2-8° C.) of 0.17 mg/mL (≈ 432 µM).
